Here are results for one molecule from patent publication US20110251238A1, “PPAR AGONIST COMPOSITIONS AND METHODS OF USE” (BIOPHARMED, priority 2008, published 2011).

Broadly, the IC50 is the midpoint of a concentration-inhibition curve. As usually defined, the GI50 is the concentration that inhibits growth by half. For orientation: MIC means the lowest concentration that inhibits growth of the organism.

Values after ≈ are worked out from the molar mass of the structure shown.

For data set [1], the system named is caspases 8. The data set is described as follows: Caspases 8 activation in HL60 cells (IEDT reagent). The data set is classed as cell-based, human. The conditions noted are these: 48 hours, 1 μM, 0.1 μM and 0.01 μM. An excerpt: 7223, using standard commercially available diagnostic kits (Calbiochem, USA). Assay reagents used were DEVD for caspases 3/7, […] for caspases 8, and LEHD for caspases 9. Moreover, colchicine was used as reference compound that induces this activity of caspases.

For data set [2], the target named is T1, PPARγ (Homo sapiens, UniProt P37231).
T1 construct: endogenous in cells; host or cells: MCF-7
T1 sequence (P37231 whole entry): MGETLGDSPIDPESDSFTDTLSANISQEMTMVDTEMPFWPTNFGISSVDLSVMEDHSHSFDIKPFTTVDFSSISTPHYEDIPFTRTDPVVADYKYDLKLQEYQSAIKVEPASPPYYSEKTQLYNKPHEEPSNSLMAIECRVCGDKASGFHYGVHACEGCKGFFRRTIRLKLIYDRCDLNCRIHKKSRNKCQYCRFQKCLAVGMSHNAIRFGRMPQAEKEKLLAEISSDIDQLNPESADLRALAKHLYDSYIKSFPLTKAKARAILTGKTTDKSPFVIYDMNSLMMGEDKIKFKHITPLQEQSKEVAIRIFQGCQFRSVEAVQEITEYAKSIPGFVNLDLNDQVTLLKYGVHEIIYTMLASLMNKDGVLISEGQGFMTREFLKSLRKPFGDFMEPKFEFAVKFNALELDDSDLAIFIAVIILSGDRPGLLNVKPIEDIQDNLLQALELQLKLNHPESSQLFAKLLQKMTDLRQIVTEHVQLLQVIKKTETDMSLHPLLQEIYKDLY
The data set can be described thus: PPAR in vitro cellular (transactivation) assay in MCF-7 cells. The data set is classed as cell-based. The protocol:
Compounds BPM18,708 and BPM19,107 were selected as representative analogues and tested in a PPAR in vitro cellular assay. Thiazolidinediones rosiglitazone and troglitazone were used as reference PPARγ agonists.
For transfection experiments, MCF-7 cells were cultured in six-well plates in 2 ml DMEM:F12 supplemented with 5% FBS. When cells were 50-60% confluent, siRNA duplexes and/or reporter gene constructs were transfected using OligofectAMINE reagent (Invitrogen). According to methods described in previous studies siRNAs were transfected in each well to give a final concentration of 70 nM. Cells were harvested in 48-56 h after transfection by manual scraping in lysis buffer (Promega). Whole cell extracts were frozen in liquid nitrogen for 30 s, vortexed by 30 s, and centrifuged to give lysates cell lysates from this experiment were analyzed for PPARγ protein by Western blot analysis. Relative intensities of the PPARγ protein were compared with a nonspecific band and results of three replicate studies were determined in the various treatment groups.
Whole cell lysates were extracted using Western sampling buffer. Protein samples were heated at 100 C for 5 min, separated on 10% SDS-PAGE and transferred to polyvinylidene difluoride (PVDF) membrane (Amersham Pharmacia Biotech, Piscataway, N.J.). […]

Data set [3] has as its system KB3 (epitheloid lung cancer) cell lines. The data set can be described thus: Cell growth inhibition (cytotoxicity), MTS assay, KB3 cell line. The data set is classed as cell-based. The protocol: Cell growth inhibition was determined by the MTS assay; the number of viable cells were proportional to the extent of formazan production in the presence or absence of drugs. […]

Data set [4] deals with LoVo (colon cancer). The data set is described as follows: Growth inhibition, MTT colorimetric assay, LoVo. The conditions noted are these: Homo sapiens, LoVo, 72 h; carcinoma; 3 days with drug; means of six values; unit inferred; read-out: IC50 LoVo. The data set is classed as cell-based. Put shortly:
(§1)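 Human tumour cell lines were exposed to compounds for 3 days. Proliferation inhibition was read by MTT colorimetric assay and expressed as IC50. Values are means of six determinations.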

For data set [5], the system named is MCF-7 (epithelial breast cancer). The data set is described as follows: Growth inhibition, MTT colorimetric assay, MCF7. The data set is classed as cell-based. Particulars: Homo sapiens, MCF7, 72 h; carcinoma; 3 days with drug; means of six values; unit inferred; read-out: IC50 MCF7. The procedure, abridged:
as §1

Data set [6] has as its system PC3 (human prostate cancer). The data set is described as follows: Growth inhibition, MTT colorimetric assay, PC3. The conditions noted are these: Homo sapiens, 72 h; carcinoma; 3 days with drug; means of six values; unit inferred; read-out: IC50 PC3. The data set is classed as cell-based. The procedure, abridged:
(§2)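 Reported IC50 values average six determinations, with standard error under 5% relative to the mean. Inhibition was scored by MTT after a 3-day culture with the drugs.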
In general terms: Tetrazolium assays rely on reduction of a dye to a coloured formazan, in cell work by metabolically active cells.

Data set [7] has as its system KaKa. The data set can be described thus: Growth inhibition, MTT colorimetric assay, KaKa. Particulars: 72 h; 3 days with drug; means of six values; unit inferred; read-out: IC50 KaKa. The data set is classed as cell-based. Put shortly: as §2
Data set [8] has as its system Host. The data set can be described thus: Growth inhibition, MTT colorimetric assay, Host. It counts as cell-based. The conditions noted are these: 72 h; 3 days with drug; means of six values; unit inferred; read-out: IC50 Host. The procedure, abridged: as §2
The subject of data set [9] is bloodstream forms of T. brucei and T. congolense. The data set is described as follows: Trypanocidal activity in vitro, Alamar Blue assay. It counts as cell-based, Trypanosoma brucei and T. congolense. The conditions noted are these: 48 h total incubation. The procedure, abridged: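 Bloodstream-form trypanosomes exposed to compounds in H2O for 24 h, then Alamar Blue added for a further 24 h (48 h total). Absorbance read at 550 nm with 630 nm reference; duplicate wells, three repeats. HL-60 cytotoxicity run alongside: 43 h plus 5 h dye.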
(Alamar Blue is a resazurin reagent that responds to reducing activity.)

Regarding `Oc1ccc(CN(Cc2ccc(C(F)(F)F)cc2)Cc2ccc(O)c3ncccc23)c2cccnc12` [BPM18,708, 5,5′-(4-(trifluoromethyl)benzylazanediyl)bis(methylene)diquinolin-8-ol], in data set [1], the “activation of caspases 8” value is listed as “no effect”. In addition, in data set [2], the “PPARγ ligand/agonist activity in transactivation assays” value was “ligands and agonists of PPARγ”. The IC50 in data set [3] (KB3, Table 3A, MTS assay, triplicate, read-out: KB3 IC50) is 0.001 µM; in [4], 0.01 µM; in data set [5], 0.034 µM; in data set [6], 0.066 µM; in data set [7], 1.58 µM; in [8] it was 0.097 µM. Also, in data set [3] (KB3 cell line, structure-cytotoxicity discussion), the “cytotoxic activity in words” value is “most active analogue”. Also, the GI50 in [9] (50% growth inhibition, read-out: GI50) worked out at 0.31 ± 0.01 µM. Besides, in data set [9] (lowest concentration at which all cells were killed, read-out: MIC), the MIC was 1 µM (≈ 0.489 µg/mL).
